For test [1], the target named is T1, E. coli DnaE (DNA polymerase III α-subunit from Escherichia coli) (Escherichia coli, UniProt P10443).
T1 construct: EcDnaE (E. coli DnaE residues 1-1160); 6xHis (N); made in house; host or cells: E. coli BL21(DE3)
Description: In vitro DnaE single enzyme assay (E. coli). Type of test: biochemical. The procedure:
(§1) Plasmids encoding EcDnaE (E. coli DnaE residues 1-1160) and SaDnaE (S. aureus DnaE residues 1-1065) with 6×His N-terminal tags, were overexpressed in BL21(DE3) and BL21-AI cells (Invitrogen), respectively. Cells were grown in LB media to an OD ˜0.45 pelleted and then resuspended in Minimal Media, as described in Pryor et al. (1997, Protein Expr Purif. 10:309-19), and inducer (0.4 mM IPTG or 0.2% arabinose) for 21 hours at 18° C. at 220 rpm. Cells were then harvested, frozen for 20 minutes at −80° C. and thawed. Pellets were resuspended in 1× Talon buffer (50 mM Sodium Phosphate, 300 mM Sodium Chloride, pH 7.4) +10% glycerol +Roche PI's (-EDTA). Cells were lysed with two passes through a French press, then centrifuged for 45 minutes at 40,000 rpm (70Ti, Beckman). Supernatant was bound to 5 mL TALON resin (CLONTECH) for 1 hour at room temperature on Nutator. TALON resin was washed with 10 mM imidizole, and DnaE was eluted with 250 mM imidizole. Eluate was concentrated and run on a size exclusion column (SEC200, GE Healthcare) in the following buffer; 25 mM HEPES, 30 mM NaCl,1 mM CaCl2, 5% glycerol, pH 7.9. Pool SEC fractions based on SDS-PAGE run, aliquot, freeze, and store at -80° C.
(§2) DnaE was diluted in 50 mM potassium phosphate pH 7.5, 5 mM BME, 10% glycerol and 200 mM NaCl prior to use.
(§3) The purpose of the DnaE single enzyme assay is to determine the ability of compounds to inhibit the DNA polymerase III α-subunit homolog from Staphylococcus aureus or the α-subunit from Escherichia coli without the other components of the replication machinery. The DnaE single enzyme assay was a modified version of the method, Standard Pol III Assay Using Activated DNA and Four dNTPs, described by Butler et al., 2008, Methods in Molecular Medicine: New Antibiotic Targets 142:25-36. Briefly, in 96-well plates, enzyme was added to a mixture containing 30 mM Tris-HCl pH 7.5, 20% glycerol, 4 mM DTT, 10 mM Mg acetate, 0.025 mM dATP, 0.025 mM dGTP, 0.025 mM dc:TP, 0.011 mM ^3H-dTTP 1 mCi/ml (Perkin-Elmer), and 0.298 mg/mL Dnase I (Sigma) treated “activated” Calf Thymus DNA (Worthington Biochemical). The assay was set up so that 5 μl of compound was distributed to the plates, 90 μl of reaction mix was added to the compound, and 5 μl of enzyme was added to start the reaction. Assays were initiated by the addition of 0.8 μg/ml E. coli or 0.05 μg/ml S. aureus DnaE, incubated for 30 min at 30° C., and terminated by the addition of a 20% trichloroacetic acid and 0.2% sodium pyrophosphate solution. Precipitated labeled DNA was collected on Glass-fiber Filtermat A using Micro96 Harvester, and the filters were washed, dried, and counted in a Microbeta Trilux (Perkin Elmer). Serial dilutions of compounds (in DMSO) were added to the plates before enzyme addition.

For test [2], the target named is T2, S. aureus DnaE (DNA polymerase III α-subunit homolog from Staphylococcus aureus) (Staphylococcus aureus, UniProt Q5HF71).
T2 construct: SaDnaE (S. aureus DnaE residues 1-1065); 6xHis (N); made in house; host or cells: E. coli BL21-AI
T2 sequence (Q5HF71 1-1065): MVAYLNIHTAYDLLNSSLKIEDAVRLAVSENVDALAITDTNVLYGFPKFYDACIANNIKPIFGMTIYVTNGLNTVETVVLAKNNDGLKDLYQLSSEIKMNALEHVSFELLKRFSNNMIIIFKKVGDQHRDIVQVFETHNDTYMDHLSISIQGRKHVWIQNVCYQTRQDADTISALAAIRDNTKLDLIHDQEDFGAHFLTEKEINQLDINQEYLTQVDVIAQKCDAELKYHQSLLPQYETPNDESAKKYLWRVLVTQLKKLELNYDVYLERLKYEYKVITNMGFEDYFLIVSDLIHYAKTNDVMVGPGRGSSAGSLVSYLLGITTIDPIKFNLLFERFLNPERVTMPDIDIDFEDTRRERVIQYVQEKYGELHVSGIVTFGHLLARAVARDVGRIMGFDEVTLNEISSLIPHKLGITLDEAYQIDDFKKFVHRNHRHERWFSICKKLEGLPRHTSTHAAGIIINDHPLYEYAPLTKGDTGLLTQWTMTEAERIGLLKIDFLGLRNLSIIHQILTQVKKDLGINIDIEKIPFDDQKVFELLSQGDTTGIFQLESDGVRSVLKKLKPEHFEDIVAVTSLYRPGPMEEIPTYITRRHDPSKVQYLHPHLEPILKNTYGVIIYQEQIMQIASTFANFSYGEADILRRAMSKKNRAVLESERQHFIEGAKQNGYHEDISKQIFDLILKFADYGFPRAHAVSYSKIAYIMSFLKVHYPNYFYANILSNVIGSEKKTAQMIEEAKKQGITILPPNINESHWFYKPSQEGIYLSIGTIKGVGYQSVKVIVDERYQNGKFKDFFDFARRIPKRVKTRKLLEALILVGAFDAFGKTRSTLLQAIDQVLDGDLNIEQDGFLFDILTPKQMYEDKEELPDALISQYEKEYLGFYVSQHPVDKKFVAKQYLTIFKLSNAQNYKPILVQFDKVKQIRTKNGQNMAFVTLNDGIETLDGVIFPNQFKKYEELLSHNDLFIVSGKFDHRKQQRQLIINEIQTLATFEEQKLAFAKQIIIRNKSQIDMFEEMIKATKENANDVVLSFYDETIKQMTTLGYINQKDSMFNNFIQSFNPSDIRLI
Description: biochemical. In kind it is biochemical. The protocol: as §1, §2, §3

The subject of test [3] is Escherichia coli MB5747 (LS 883, tolC). Description: microbe, parasite or virus in culture. Type of test: cell-based. As to conditions: * = some reduction of growth versus control at […]; for MIC: Escherichia coli, read-out: E. coli LS883 tolC (MIC), MHII broth.
The subject of test [4] is Pseudomonas aeruginosa MB5890 (CB1101, efflux-deleted). Description: microbe, parasite or virus in culture. Type of test: cell-based. Particulars: * = some reduction of growth versus control at […]; for MIC: Pseudomonas aeruginosa, read-out: P. aeruginosa MB5890 efflux-del (MIC), MHII broth.
The test system of test [5] is Streptococcus pneumoniae MB6357 (CL 2883). Description: Nargenicin antibacterial assay (MIC), S. pneumoniae. Type of test: cell-based. As to conditions: for MIC: Streptococcus pneumoniae.
The mark [6] stands for this setting: read-out: S. aureus DnaE IC50 (converted).
Setting [7] is: read-out: S. pneumoniae MB2883 (MIC).
Where [8] appears, read: read-out: S. pneumoniae MB2883 (MIC), Isosensitest broth, * = some reduction of growth versus control at […].

≈ marks a conversion by molar mass, not a printed value. Where two headings read alike, the source gives them in different places. Some results are limits rather than exact numbers.

Data on nine molecules can be found in patent US9944654B2, “Nargenicin compounds and uses thereof as antibacterial agents” (priority 2014, dated 2018).

T1 sequence (P10443 whole entry, the tested form may be a part): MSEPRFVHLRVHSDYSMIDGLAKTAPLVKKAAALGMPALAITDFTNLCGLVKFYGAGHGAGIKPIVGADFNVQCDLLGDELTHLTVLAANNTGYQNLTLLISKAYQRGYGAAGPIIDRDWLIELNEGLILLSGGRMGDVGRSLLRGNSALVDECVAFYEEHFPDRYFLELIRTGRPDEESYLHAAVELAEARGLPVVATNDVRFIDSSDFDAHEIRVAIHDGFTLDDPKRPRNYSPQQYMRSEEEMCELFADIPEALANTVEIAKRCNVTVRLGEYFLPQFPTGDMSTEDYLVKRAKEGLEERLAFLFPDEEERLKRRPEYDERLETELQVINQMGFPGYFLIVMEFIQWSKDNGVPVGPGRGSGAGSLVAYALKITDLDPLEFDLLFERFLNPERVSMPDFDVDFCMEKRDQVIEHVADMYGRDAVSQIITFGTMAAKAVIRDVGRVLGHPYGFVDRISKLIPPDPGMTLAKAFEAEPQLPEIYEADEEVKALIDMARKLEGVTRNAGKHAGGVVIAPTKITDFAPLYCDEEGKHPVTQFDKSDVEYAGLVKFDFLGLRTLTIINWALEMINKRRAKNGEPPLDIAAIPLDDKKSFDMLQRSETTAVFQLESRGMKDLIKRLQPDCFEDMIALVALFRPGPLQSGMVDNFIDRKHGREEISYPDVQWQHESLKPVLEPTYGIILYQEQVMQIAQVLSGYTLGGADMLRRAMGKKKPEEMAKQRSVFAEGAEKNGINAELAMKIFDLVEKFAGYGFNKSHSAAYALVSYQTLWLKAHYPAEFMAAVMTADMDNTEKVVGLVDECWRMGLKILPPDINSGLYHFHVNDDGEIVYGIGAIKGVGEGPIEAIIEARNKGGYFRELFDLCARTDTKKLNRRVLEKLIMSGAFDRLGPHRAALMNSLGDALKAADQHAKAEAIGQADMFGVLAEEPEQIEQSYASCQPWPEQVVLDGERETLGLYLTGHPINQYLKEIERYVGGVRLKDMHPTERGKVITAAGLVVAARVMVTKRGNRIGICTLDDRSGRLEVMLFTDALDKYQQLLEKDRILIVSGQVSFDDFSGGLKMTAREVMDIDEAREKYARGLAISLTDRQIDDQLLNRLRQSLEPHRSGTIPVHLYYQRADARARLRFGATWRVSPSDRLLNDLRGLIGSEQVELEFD

In the case of `CO[C@H]1C[C@H]2C=CC3C4[C@H](O)[C@@H](C)[C@@H](OC(=O)c5ccc[nH]5)[C@@H]3O[C@]42/C(C)=C/[C@@H](C)[C@@H]([C@@H](C)OC(=O)C(=O)OCc2cccnc2)OC1=O.O=C(O)C(F)(F)F` [Example 208], the IC50 in test [1] (E. coli DnaE IC50) was 3.41 µM; in test [2] (setting [6]) it was under 0.00757 µM. The MIC in test [3] was 1 µg/mL; in test [4], 32 µg/mL; in test [5] (setting [7]), over 128 µg/mL.

`CC[C@H]1OC(=O)[C@@H](OC)C[C@H]2C=C[C@H]3[C@H]4O[C@]2(/C(C)=C/[C@H]1C)[C@@H]3[C@H](O)C(C)[C@H]4C[N+](=O)[O-]` (stereo partly drawn) [Example 190, (3R,4R,7S,8aS,10aR,11R,12S,14R,14aS,14bS,E)-4-ethyl-14-hydroxy-7-methoxy-1,3,13-trimethyl-12-(nitromethyl)-3,4,8,8a,10a,11,12,13,14,14a-decahydro-11,14b-epoxynaphtho[2,1-e]oxecin-6(7H)-one]: the IC50 in test [1] (E. coli DnaE IC50) was 66.7 µM; in test [2] (setting [6]), 6.67 µM. Further, the results for the MIC in test [3], in test [4] and in test [5] (setting [7]) were 64 µg/mL (≈ 142 µM), over 64 µg/mL and over 64 µg/mL, respectively.

For the molecule `CO[C@H]1CC2C=C[C@H]3[C@H]4O[C@]2(/C(C)=C/[C@@H](C)[C@@H]([C@@H](C)OC(=O)OCCCO)OC1=O)[C@@H]3[C@H](O)[C@@H](C)[C@H]4OC(=O)c1ccc[nH]1` (stereo partly drawn) [Example 26, (3R,4S,7S,10aR,11R,12R,13R,14R,14aS,14bS,E)-14-hydroxy-4-((R)-1-(((3-hydroxypropoxy)carbonyl)oxy)ethyl)-7-methoxy-1,3,13-trimethyl-6-oxo-3,4,6,7,8,8a,10a,11,12,13,14,14a-dodecahydro-11,14b-epoxynaphtho[2,1-e]oxecin-12-yl 1H-pyrrole-2-carboxylate], the IC50 in test [1] (E. coli DnaE IC50) was 130 µM; in test [2] (S. aureus DnaE IC50) it was under 0.00971 µM.

For `CO[C@H]1CC2C=C[C@H]3[C@H]4O[C@]2(/C(C)=C/[C@@H](C)[C@@H]([C@@H](C)OC(=O)NC(CO)(CO)CO)OC1=O)[C@@H]3[C@H](O)[C@@H](C)[C@H]4OC(=O)c1ccc[nH]1` (stereo partly drawn) [Example 22], the IC50 in test [1] (E. coli DnaE IC50) was over 151 µM; in test [2] (setting [6]), under 0.00905 µM. Further, the MIC in test [3] is 4 µg/mL (≈ 6.04 µM); in test [4], 64 µg/mL (≈ 96.6 µM); in test [5] (setting [7]) it was 64 µg/mL (≈ 96.6 µM).

For `CCN[C@H]1[C@H](C)[C@@H](O)[C@@H]2[C@H]3C=C[C@@H]4C[C@H](OC)C(=O)O[C@H]([C@@H](C)O)[C@H](C)/C=C(\C)[C@@]24O[C@H]31` [Example 147, (3R,4S,7S,8aS,10aR,11R,12S,13S,14R,14aS,14bS,E)-12-(ethylamino)-14-hydroxy-4-((R)-1-hydroxyethyl)-7-methoxy-1,3,13-trimethyl-3,4,8,8a,10a,11,12,13,14,14a-decahydro-11,14b-epoxynaphtho[2,1-e]oxecin-6(7H)-one], the IC50 is over 222 µM in test [1] (E. coli DnaE IC50) and 0.667 µM in test [2] (setting [6]). Further, the MIC in test [3], in test [4] and in test [5] (setting [8]) was over 128 µg/mL each time.

Consider `CO[C@H]1C[C@H]2C=C[C@H]3[C@H]4O[C@]2(/C(C)=C/[C@@H](C)[C@@H]([C@H](C)N2C(=O)c5ccccc5C2=O)OC1=O)[C@@H]3[C@H](O)[C@@H](C)[C@H]4OC(=O)c1ccc[nH]1` [Example 172], for which the IC50 in test [1] (E. coli DnaE IC50) was 63.6 µM; in test [2] (setting [6]), about 0.00776 µM. Further, the results for the MIC in test [3], in test [4] and in test [5] (setting [8]) were 16 µg/mL (≈ 24.8 µM), over 128 µg/mL and over 128 µg/mL, respectively.

Take `CO[C@H]1CC2C=C[C@H]3[C@H]4O[C@]2(/C(C)=C/[C@@H](C)[C@@H]([C@@H](C)OC(=O)OC2CCC(O)CC2)OC1=O)[C@@H]3[C@H](O)[C@@H](C)[C@H]4OC(=O)c1ccc[nH]1` (single isomer, unassigned) [Example 35]: the IC50 was over 76 µM in test [1] (read-out: E. coli DnaE IC50 (converted)) and 0.0106 µM in test [2] (read-out: S. aureus DnaE IC50). Besides, the “E. coli LS883 tolC (MIC)” value in test [3] (MHII broth) amounted to 32 µg/mL. In addition, the “P. aeruginosa MB5890 efflux-del (MIC)” value in test [4] (MHII broth) is over 128 µg/mL. Further, in test [5] (Isosensitest broth, * = some reduction of growth versus control at […]), the “S. pneumoniae MB2883 (MIC)” value worked out at 64 µg/mL.

For the molecule `CO[C@H]1C[C@H]2C=C[C@H]3[C@H]4O[C@]2(/C(C)=C/[C@@H](C)[C@@H]([C@@H](C)OC(=O)CBr)OC1=O)[C@@H]3[C@H](O)[C@@H](C)[C@H]4OC(=O)c1ccc[nH]1` [Example 56, (3R,4S,7S,8aS,10aR,11R,12R,13R,14R,14aS,14bS,E)-4-((R)-1-(2-bromoacetoxy)ethyl)-14-hydroxy-7-methoxy-1,3,13-trimethyl-6-oxo-3,4,6,7,8,8a,10a,11,12,13,14,14a-dodecahydro-11,14b-epoxynaphtho[2,1-e]oxecin-12-yl 1H-pyrrole-2-carboxylate], the values for the IC50 in test [1] (E. coli DnaE IC50) and in test [2] (S. aureus DnaE IC50) were 48.7 µM and under 0.00943 µM, respectively.

Regarding `CCCNC(=O)O[C@H](C)[C@H]1OC(=O)[C@@H](OC)C[C@H]2C=C[C@H]3[C@H]4O[C@]2(/C(C)=C/[C@H]1C)[C@@H]3[C@H](O)[C@@H](C)[C@H]4OC(=O)c1ccc[nH]1` [Example 2, (3R,4S,7S,8aS,10aR,11R,12R,13R,14R,14aS,14bS,E)-14-hydroxy-7-methoxy-1,3,13-trimethyl-6-oxo-4-((R)-1-((propylcarbamoyl)oxy)ethyl)-3 ,4,6,7,8,8a,10a,11,12,13,14,14a-dodecahydro-11,14b-epoxynaphtho[2,1-e]oxecin-12-yl 1H-pyrrole-2-carboxylate], the figures for the half-inhibitory concentration (IC50) in test [1] (E. coli DnaE IC50) and in test [2] (S. aureus DnaE IC50) were 51.6 µM and 0.035 µM, respectively.

Usually IC50 stands for the point on the concentration scale where inhibition reaches its midpoint.
